From US20090012085A1, “DOSAGE FORMS AND METHODS OF TREATMENT USING A TYROSINE KINASE INHIBITOR” (priority 2005, published 2009)
Where two headings read alike, the source gives them in different places.

Assay: Phase I dose-escalating study, plasma pharmacokinetics in patients with solid tumor
Format: in vivo, human
Details: human, plasma; for concentration at 3 h: nominal time 3 h; for concentration at 6 h: nominal time 6 h; for concentration at 8 h: nominal time 8 h; for concentration at 10 h: nominal time 10 h; for concentration at 4 h: nominal time 4 h; for concentration at 0 h: nominal time 0 h; for concentration at 1 h: nominal time 1 h; for concentration at 2 h: nominal time 2 h; for concentration at 20 h: nominal time 20 h; for concentration at 48 h: nominal time 48 h; for concentration at 72 h: nominal time 72 h; for concentration at 96 h: nominal time 96 h; for concentration at 144 h: nominal time 144 h; for AUC(0-t): read-out: AUC(0-24), mean (% CV); for Cmax: read-out: Cmax, mean (% CV); for Tmax: read-out: tmax, mean (% CV); for half-life: read-out: t½, mean (% CV) (converted)
Experimental: Cmax values, or maximum total plasma concentrations, of a compound of formula 1 can be measured according to techniques well known to those skilled in the art. For example, after a compound of formula 1 has been administered to a mammal, blood samples can be taken at fixed time points over a period of time (e.g. 24 hours) and the serum or plasma concentration of compound of formula 1 can be measured using standard analytical techniques known in the art. In vivo determinations Cmax can then be made by plotting the serum or plasma concentration of compound of formula 1 along the ordinate (y-axis) against time along the abscissa (x-axis).
The maleate salt of compound 1 was administered to human patients with solid tumor malignancies not amenable to conventional therapies in a Phase I dose-escalating multicenter study. The types of tumor malignancies included colorectal carcinoma, renal cell carcinoma, esophageal carcinoma, thymus carcinoma, mastocytosis, lung cancer and multiple endocrine neoplasia type II. Patients were treated in cohorts of 6 with escalating QD (once per day) doses of the maleate salt of compound 1 under fasting conditions. Each study cycle of 5 weeks consisted of 4 weeks of treatment followed by 1 week of rest (4/1 schedule), or continuous dosing without any rest period.
Full pharmacokinetic profiles were collected on Cycle 1 Day 1 (C1D1), Cycle 1 Day 28 (C1D28), and Cycle 2 Day 28 (C2D28). Preliminary pharmacokinetic parameters for the first 44 patients, i.e. the first 7 dosing groups, were estimated using nominal collection times and quality-controlled, non-quality assured bioanalytical data. The dosage amounts in Table 1A and Table 1B are free base equivalent amounts.

[1] = 150 mg QD, 150 mg QD 4/1 (n = 5), read-out: Mean plasma concentration following the last dose on cycle 1 day 28
[2] = 150 mg QD, 150 mg QD Continuous (n = 6), read-out: Mean plasma concentration following the last dose on cycle 1 day 28
[3] = 150 mg, 150 mg QD 4/1 (n = 5), read-out: Mean plasma concentration following the last dose on cycle 1 day 28
[4] = 150 mg, 150 mg QD (4/1), C1D1 (n = 7)
[5] = 150 mg, 150 mg QD (4/1), C1D28 (n = 5)
[6] = 150 mg, 150 mg QD (4/1), C2D28 (n = 4)
[7] = 150 mg, 150 mg QD Continuous (n = 6), read-out: Mean plasma concentration following the last dose on cycle 1 day 28
[8] = 200 mg QD, 200 mg QD 4/1 (n = 5), read-out: Mean plasma concentration following the last dose on cycle 1 day 28
[9] = 200 mg, 200 mg QD 4/1 (n = 5), read-out: Mean plasma concentration following the last dose on cycle 1 day 28
[10] = 200 mg, 200 mg QD (4/1), C1D1 (n = 6)

concentration at 3 h [1]: 268 ng/mL | concentration at 6 h [1]: 161 ng/mL | concentration at 8 h [1]: 142 ng/mL | concentration at 10 h [1]: 132 ng/mL | concentration at 3 h [2]: 407 ng/mL | concentration at 4 h [2]: 519 ng/mL | concentration at 6 h [2]: 471 ng/mL | concentration at 8 h [2]: 404 ng/mL | concentration at 10 h [2]: 345 ng/mL | concentration at 0 h [3]: 99.8 ng/mL | concentration at 1 h [3]: 184 ng/mL | concentration at 2 h [3]: 252 ng/mL | concentration at 4 h [3]: 231 ng/mL | concentration at 20 h [3]: 42.9 ng/mL | concentration at 24 h (150 mg, 150 mg QD 4/1 (n = 5), nominal time 24 h, read-out: Mean plasma concentration following the last dose on cycle 1 day 28): 94.8 ng/mL | concentration at 48 h [3]: 31.2 ng/mL | concentration at 72 h [3]: 9.08 ng/mL | concentration at 96 h [3]: 4.17 ng/mL | concentration at 144 h [3]: 1.52 ng/mL | AUC(0-t) [4]: 3370 ng·h/mL | concentration at 24 h (150 mg, 150 mg QD (4/1), C1D1 (n = 7), read-out: C(trough, 24 h), mean (% CV)): 81.7 ng/mL | Cmax [4]: 421 ng/mL | Tmax [4]: 1.6 h | half-life [4]: 13.6 h | AUC(0-t) [5]: 2960 ng·h/mL | concentration at 24 h (150 mg, 150 mg QD (4/1), C1D28 (n = 5), read-out: C(trough, 24 h), mean (% CV)): 75.8 ng/mL | Cmax [5]: 299 ng/mL | Tmax [5]: 1.8 h | half-life [5]: 19.3 h | AUC(0-t) [6]: 3090 ng·h/mL | concentration at 24 h (150 mg, 150 mg QD (4/1), C2D28 (n = 4), read-out: C(trough, 24 h), mean (% CV)): 54.6 ng/mL | Cmax [6]: 269 ng/mL | Tmax [6]: 3 h | half-life [6]: 13.2 h | concentration at 0 h [7]: 124 ng/mL | concentration at 1 h [7]: 244 ng/mL | concentration at 2 h [7]: 453 ng/mL | concentration at 20 h [7]: 104 ng/mL | concentration at 24 h (150 mg, 150 mg QD Continuous (n = 6), nominal time 24 h, read-out: Mean plasma concentration following the last dose on cycle 1 day 28): 271 ng/mL | concentration at 3 h [8]: 396 ng/mL | concentration at 4 h [8]: 441 ng/mL | concentration at 6 h [8]: 463 ng/mL | concentration at 8 h [8]: 349 ng/mL | concentration at 10 h [8]: 361 ng/mL | concentration at 0 h [9]: 353 ng/mL | concentration at 1 h [9]: 408 ng/mL | concentration at 2 h [9]: 408 ng/mL | concentration at 20 h [9]: 189 ng/mL | concentration at 24 h (200 mg, 200 mg QD 4/1 (n = 5), nominal time 24 h, read-out: Mean plasma concentration following the last dose on cycle 1 day 28): 259 ng/mL | concentration at 48 h [9]: 87.6 ng/mL | concentration at 72 h [9]: 31.4 ng/mL | concentration at 96 h [9]: 13 ng/mL | concentration at 144 h [9]: 4.77 ng/mL | AUC(0-t) [10]: 3440 ng·h/mL | concentration at 24 h (200 mg, 200 mg QD (4/1), C1D1 (n = 6), read-out: C(trough, 24 h), mean (% CV)): 147 ng/mL | Cmax [10]: 262 ng/mL | Tmax [10]: 8.7 h
SMILES: Cc1[nH]c(/C=C2\C(=O)Nc3ccc(F)cc32)c(C)c1C(=O)NC[C@H](O)CN1CCOCC1 [compound 1, 5-[(Z)-(5-fluoro-2-oxo-1,2-dihydro-3H-indol-3-ylidene)methyl]-N-[(2S)-2-hydroxy-3-morpholin-4-ylpropyl]-2,4-dimethyl-1H-pyrrole-3-carboxamide]
